This is an account of results in patent US20070207191A1, “PHARMACEUTICAL COMPOSITIONS AND METHODS TO ACHIEVE AND MAINTAIN A TARGETED AND STABLE COPPER STATUS AND PREVENT AND TREAT COPPER-RELATED CENTRAL NERVOUS SYSTEM DISEASES” (priority 2006, published 2007).

“Also recorded” adds a separate entry of the source.

Series [1] can be described thus: Example 13: dissolution of ATTM capsule in artificial gastric fluid. Format: physicochemical. As for the experimental part:
FIG. 1 is a plot of the dissolution profile of an ammonium tetrathromolybdate (ATTM) capsule in gastric juice in accordance with Example 13 hereof; and
We performed a dissolution experiment using a capsule containing 20 mg of ammonium tetrathiomolybdate plus excipient. ATTM crystals used were 500 microns or smaller. […] After, 3 hours of dissolution, black particles released from the capsule were found suspended in solution. After neutralization of the gastric media to pH 9, these black particles disappeared resulting in about 10% of ATTM being recovered.
• 1. […] Conclusion: ˜90% of ATTM is destroyed in the stomach. Method: Material Studied • 1. Study was performed on R&D Pipex formulated capsule of ATTM. • 2. The ATTM was milled through a 500 micron sieve. • 3. The capsule contained ˜20 mg of ATTM and 180 mg of excipient. Dissolution Conditions • 1. Media: 1 liter of UPS artificial gastric fluid pH 2 • 2. Temp: 22° C. • 3. Paddle RPMs: 100 • 4. Dissolution time: 3 hours Procedure • 1. A #2 QualiCaps capsule available from Shionogi Europe, B.V. was mechanically dropped into media at time zero • 2. 1 ml of media was then collected at 1, 2, 4, 8, 16, 30, 45, 75, 120 and 180 min • 3. Following 3 hours of dissolution, the pH was raised to 9 using NaOH pellets. • 4. The media was paddled for 1 hour. • 5. After 1 hour a sample was collect for analysis Analysis • 1. 400 ul of collected media was diluted to 2 ml with phosphate buffer, pH 7 • 2. The solution was placed in a cuvette and scanned between 260 and 600 nm. • 3. Absorbance was measured at 367 nm. • 4. The extinction coefficient was calculated using Beer's law. • 5. The extinction coefficient of a reference sample in a capsule is 13500 cm^−1 M^−1 Conclusion: • 1. Any ATTM that dissolves in media at pH 2 is immediately destroyed. • 2. Some of the ATTM floated in the media as black specks following 3 hours of dissolution. • 3. After three hours when the pH of the solution was raised to pH 9, the color of the solution changed to an orange color. • 4. This presumably is stable ATTM that has dissolved. • 5. […]

Series [2] can be described thus: Dissolution of ATTM crystals of different size in acidic buffer (pH 2). The series is classed as physicochemical. Here is the method:
After 1 hour of incubation in acidic buffer, more than 50% of ATTM was found.
• 1. ATTM purchased from Sigma-Aldrich was sieved using a 1700 micron screen. […] ATTM crystals were ground so that no crystals were larger than 50 microns. These will be referred to as small crystals. • 3. 100 mg of each type of crystal was weighed and added to separate 1.7 ml plastic centrifuge tubes. • 4. 1 ml of buffer pH 2 was added to each tube without mixing. • 5. After 1 hour, each tube was centrifuged at 14,000 rpms for 1 minute. • 6. The supernatant was removed and analyzed for ATTM content. • 7. To the pellet of each tube was added 1 ml of phosphate buffer pH 7.4 • 8. Each solution was vortex-mixed. • 9. Each tube was centrifuged at 14,000 rpms for 1 min. • 10. The supernatant from each tube was analyzed for ATTM content. Analysis: • 1. A 1 to 100 dilution of all supernatants were made in phosphate buffer pH 7.4. • 2. 2 ml of each diluted sample were added to plastic cuvettes. • 3. Absorbance was measured at 467 nm. • 4. The extinction coefficients (EC) of ATTM for each sample were calculated.
Observations: • 1. When acid buffer was added to small crystals of ATTM, the solution turned immediately black and a sulfur odor could be detected. • 2. […] This was observed by the 1 hour incubation time point. • 3. When acid buffer was added to large crystals of ATTM, a small amount of black coloration leached from the crystal. […] Conclusions: • 1. […] In acid, un-dissolved ATTM from large crystals can be liberated with a secondary dissolution in neutral media. • 5.

The nature of series [3]: Example 14: stability of ATTM capsules after eight weeks. The series is classed as physicochemical. The following applies: stored at RT and ambient RH.
The conditions of series [4]: infants at one month of age, supplemented 80 μg Cu/kg daily for 15 days; cited from earlier work.
The test system of the next series is free copper in the CNS. The following applies: in vivo.
Another series relates to neural tube defects. The following applies: adequate intake by mothers prior to pregnancy; cited from earlier work.
Series [5] can be described thus: Example 6: colour stability of crushed versus lyophilized tetrathiomolybdate. Format: physicochemical. The source says: Tetrathiothiomolybdate crystals are either crushed to a powder, that is initially orange in color, or placed in water to dissolve yielding a bright orange solution, which is filtered and lyophilized, which results in a dry powder orange in color.

For series [6], the system named is intestinal absorption of copper. The following applies: cited from earlier work.
The nature of series [7]: Storage stability of tetrathiomolybdate under typical atmospheric temperature and humidity. The series is classed as physicochemical. The following applies: within three months. The source says: Tetrathiohiomolydates, under typical atmospheric condition of temperature and humidity are unstable and the active ingredient can undergo oxidation to molybdenum sulfoxide. Molydbdenum sulfoxide is not active as a copper binding agent and therapeutic agent for reduing body copper levels in humans. Tetrathiomolybdates can be expected to lose approximately 10% of its potency within three months if stored under such conditions.

A short description of series [8]: Example 5: tetrathiomolybdate crystals and capsule in simulated stomach acid. Format: physicochemical. As for the experimental part:
Large (>1000 microns) and small (<50 microns) dark orange crystals of tetrathiomolybdate are placed in a solution of a commercially available simulated stomach acid. […] The dissolution properties of the large verses small crystals are clearly distinct. To further examine the properties of a methylcellulose capsule containing 20 mg of tetrathiomolybdate and 180 mg of excipient containing a heterogenous size range (200-800 microns) of tetrathiomolybdate crystals was examined in a dissolution chamber initially containing simulated stomach acid. The gelatin capsule dissolved within 15 minutes. Tetrathiothiomolybdate recovery was assessed by UV/Visible absorption periodically over 3 hours, a time consistent with the initiation of gastric emptying and the initial phase of postprandial absorption. […] At three hours the remaining gastric juice was made alkaline by adjusting the pH to 8-9, the solution turned orange to red and was assessed by UV/V is spectroscopy to determine the recover of tetrathiothiomolybdate, which was approximately 7% of the amount in the capsule.
When the same experiment is performed with small crystals, much less than 7% of parent compound is recovered, while when the experiment is performed with large crystals much greater than 7% of parent compound is recovered.

For series [9] the following is noted: current formulations; cited from earlier work.
The conditions of series [10]: oral dose of Cu^64 as copper acetate, humans; cited from earlier work.
The mark [11] stands for this setting: crystals 1700 microns or greater.
Setting [12] is: pellet taken up in phosphate buffer pH 7.4.
The mark [13] stands for this setting: pellet taken up in phosphate buffer pH 7.4, 1 to 100 dilution.
Setting [14] is: supernatant after 1 hour in buffer pH 2.
The mark [15] stands for this setting: supernatant after 1 hour in buffer pH 2, 1 to 100 dilution.
Setting [16] is: 50 mg immediate release capsules three times per day away from meals and beverages, Wilson's disease patients.

For `[NH4+].[NH4+].[SH-].[SH-].[S]=[Mo]=[S]` [ATTM, ammonium tetrathiomolybdate], in [1] (after 3 hours of dissolution), the “ATTM recovered after neutralization of the gastric media to pH 9” value was “about 10%”. The same compound came in with an ATTM destroyed in series [1] (artificial gastric fluid over three hours) of around 90%. The “ATTM recovered dissolved in the gastric dissolution medium” value in series [1] (artificial gastric fluid pH 2, 22° C., up to 3 hours, crystals 500 microns or smaller) was “No ATTM was recovered; also recorded: No ATTM was found dissolved”. For the same compound, in [2], the “survival of dissolved ATTM in acid media” value is listed as “does not survive in acid media”. Moreover, in series [2] (crystals 50 microns or less), the “ATTM found after 1 hour of incubation in acidic buffer” value is “no ATTM was found” and the “dissolution behaviour in acidic buffer (pH 2)” value is given as “dissolved rapidly; also recorded: dissolves in Acid media but soon forms an insoluble precipitate”. In addition, in series [2] (setting [11]), the “ATTM found after 1 hour of incubation in acidic buffer” value is on record as “more than 50%” and the “dissolution behaviour in acidic buffer (pH 2)” value is “dissolved slowly; also recorded: forms a black coating which seems to resist dissolution”. In addition, the “stability after 8-Weeks” value in [3] is listed as “completely stable”.

In the case of `[NH4+].[NH4+].[SH-].[SH-].[S]=[Mo]=[S]` [Large Crystal, ammonium tetrathiomolybdate], the “Extinction Coefficient” value in series [2] (setting [12]) is given as 7,000; in series [2] (setting [14]) it was 0. Also, the entries for the “Absorbance at 467” value in series [2] (setting [13]) and in series [2] (setting [15]) were 0.310 and 0, respectively.

Turning to `[NH4+].[NH4+].[SH-].[SH-].[S]=[Mo]=[S]` [Small Crystal, ammonium tetrathiomolybdate], the “Extinction Coefficient” value in series [2] (setting [12]) and in [2] (setting [14]) was 0 in each case. Further, the “Absorbance at 467” value in series [2] (setting [13]) and in series [2] (setting [15]) was 0 in each case.

Take `O=S(=O)([O-])[O-].[Cu+2]` [copper sulfate]: the “Mean (+SD) copper absorption” value in series [4] is on record as 74.8+15.2%.

On to `CC(C)(S)[C@@H](N)C(=O)O` [d-pencillamine, d-penicillamine], for which the “levels of free copper in the CNS” value in the series on free copper in the CNS is listed as “increase the levels of free copper in the CNS”.

Regarding `Nc1nc2ncc(CNc3ccc(C(=O)N[C@@H](CCC(=O)O)C(=O)O)cc3)nc2c(=O)[nH]1` [folic acid], the “reduction of the incidence of NTDs” value with neural tube defects was “up to 70%”.

Regarding `[SH-].[SH-].[S]=[Mo]=[S]` [tetrathiomolybdate], the colour stability result in series [5] (crushed crystals, nitrogen overlay, room temperature, closed tube) is reported as “slowly turn black within a few day”; in series [5] (lyophilized dry powder, similar conditions) it was “remains orange for over a month”; in series [5] (protected from atmosphere and moisture by covering with mineral), “remains orange (i.e. not oxidized) for over a month”. Also, the “blocking of copper absorption compared with zinc” value in series [6] (human, in vivo) is recorded as “more effective blocker of copper absorption than zinc”. The loss of potency result in series [7] was “approximately 10%”. Moreover, the “detection in simulated gastric samples, removed and neutralized” value in series [8] (any time point over three hours, UV/Visible absorption) is given as “not detectable”. The same compound yielded a capsule dissolution time in [8] (capsule with 20 mg tetrathiomolybdate and 180 mg excipient, simulated stomach acid) of at most 15 min. Further, the “behaviour in simulated stomach acid” value in [8] (large (>1000 microns) crystals) was “remain relatively intact”; in [8] (small (<50 microns) crystals) it was “form a disaggregate cloudy black solution”.

Take `NCCNCCNCCN` [trientine]: the “levels of free copper in the CNS” value in the series on free copper in the CNS is on record as “increase the levels of free copper in the CNS”.

Take `CC(=O)[O-].CC(=O)[O-].[Zn+2]` [zinc acetate]: the stomach irritability in [9] is ~10 % of patients. In [6] (setting [16]), the “mean Cu^64 uptake” value was 0.82 % of the administered dose and the mean copper balance is -0.44 mg/day. In addition, the control of copper result in [6] (once daily dosing of immediate release capsules) is on record as “does not provide adequate control of copper”.

For the compound `[Zn]` [zinc], the “copper balance induced, average” value in series [6] (Wilson's patients, from the two week point) was −0.35 mg daily. The “time to achieve intestinal metallothionein induction and a negative copper balance” value in series [6] (Wilson's patients) was “approximately two”. Also, the “time to bring urine copper and nonceruloplasmin plasma copper down to subtoxic levels” value in series [6] (zinc therapy) is given as “six”.

Take copper acetate: in series [10], the “oral dose absorbed from the gastrointestinal tract” value is “about 65%” and the “oral dose absorbed from the gastrointestinal tract, range” value is listed as 15-97%.
